Tests used:
[1] = target: T1, Human LRH-1 Ligand Binding Domain (Homo sapiens, UniProt O00482); experiment: LRH-1 LBD / TIF2 Box3 coactivator peptide recruitment assay (Eu/APC, Lance mode); type: biochemical; conditions: n of 44
T1 construct: made in house; host or cells: E. coli BL21(DE3), pRSETa vector
Description: Human LRH-1 Ligand Binding Domain (LRH1 LBD) was expressed in E.coli strain BL21(DE3) as an amino-terminal polyhistidine tagged fusion protein. Expression was under the control of an IPTG inducible T7 promoter. DNA encoding this recombinant protein was subcloned into the pRSETa expression vector (Invitrogen). Sequence encoding the modified polyhistidine tag ([…]) was fused in frame to sequence encoding residues 248-501 of LRH-1. The coding sequence of Human LRH-1 LBD was derived from Genbank accession number U—93553.
Purified LRH-1 LBD was desalted/buffer exchanged using PD-10 gel filtration columns into PBS [100 mM NaPhosphate, pH 7.2, 150 mM NaCl]. LRH-1 LBD was diluted to approximately 10 microM in PBS and five-fold molar excess of NHS-LC-Biotin (Pierce) was added in a minimal volume of PBS. This solution was incubated with gentle mixing for 60 minutes at ambient room temperature. The biotinylation modification reaction was stopped by the addition of 2000× molar excess of Tris-HCl, pH 8. […]
The above solutions are gently mixed together to give a final preparation of 5E-9 M (5 nM) APC-labelled LRH1 LBD and 1E-8 M […] Europium-labelled TIF2 box3 peptide. […] The plates were incubated for 1 hr then read on Wallac Victor2 V in Lance mode for EU/APC. […]

[2] = system: APOAl mRNA levels in HepG2 cells; experiment: APOAl mRNA levels in HepG2 cells treated with compound (RT-QPCR); type: cell-based; conditions: 48 hours, 10 μm, vs vehicle (DMSO 0.1%), FIG. 4
Procedure: HepG2 and CV1 cells (ATCC, Rockville, Md.) were maintained in Basic Eagle's medium (BME) supplemented with 2 mM glutamine, 1% non-essential amino acids and 10% (v/v) fetal calf serum (FCS) in an atmosphere of 5% CO2 at 37° C.
Total cellular RNA was extracted using TRIZOL (Invitrogen). Real time quantitative PCR (RT-QPCR) assays were performed using an Applied Biosystems 7900 sequence detector. Total RNA (1 μg) was reverse transcribed with random hexamers using Taqman reverse-transcription reagents kit (Applied Biosystems) following the manufacturer's protocol. RNA expression levels were determined by Sybr green assays as described. 18SrRNA transcript was used as an internal control to normalize the variations for RNA amounts. Gene expression levels are expressed relative to 18S rRNA. Apo Al, Apo B, SR-Bl, SHP, LRH-1 and CYP7α mRNA levels were measured using the following oligonucleotides: For 18S: 5′-[…]-3′ and 5′-[…]-3′; for APO Al: 5′-[…]-3′ and 5′-[…]-3′; for Apo B: 5′-[…]-3′ and 5′-[…]-3′; for SR-Bl: 5′-[…]-3′ and 5′-[…]-3′; for SHP: 5′-[…]-3′ and 5′-[…]-3′; for LRH-1: 5′-[…]-3′ and 5′-[…]-3′; for CYP7α:5′-[…]-3′ and 5′-[…]-3′.
HepG2 cells, cultured in 24-well plates, were treated for 48 hours with Compound I, 10 μm or vehicle (DMSO 0.1%) prior to harvest and determination of APOAl mRNA levels by RT-QPOCR as described in Example 1 above.

T1 sequence (O00482 288-541): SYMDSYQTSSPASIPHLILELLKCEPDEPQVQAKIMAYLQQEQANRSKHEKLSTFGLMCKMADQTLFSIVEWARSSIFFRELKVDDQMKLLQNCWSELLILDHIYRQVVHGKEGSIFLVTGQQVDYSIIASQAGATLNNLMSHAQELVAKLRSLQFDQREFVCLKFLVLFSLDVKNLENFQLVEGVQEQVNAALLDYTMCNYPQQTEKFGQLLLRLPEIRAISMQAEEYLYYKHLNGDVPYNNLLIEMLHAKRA
T1 sequence (as listed by the source partner): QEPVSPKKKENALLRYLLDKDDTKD

SMILES: CCC/C=C(\CCC)C1=C(c2ccccc2)[C@@]2(Nc3ccccc3)CCC[C@H]2C1 [Compound 1]
- EC50 ([1]; LRH1 agonist activity, TIF2 Box3 peptide recruitment, read-out: ave pEC50 (converted)): 0.257 µM
- ave % basal (maximum observed increase in agonist activity compared to the vehicle control) [1]: 277 % basal
- APO Al gene expression (APOAl mRNA levels) [2]: Induces APO Al Gene Expression

— patent publication US20080227864A1, “Lhr1 Activators as Medicaments” (priority 2004, published 2008)
